Source: ChEMBL document CHEMBL3576861, “Methyl 3-((6-methoxy-1,4-dihydroindeno[1,2-c]pyrazol-3-yl)amino)benzoate (GN39482) as a tubulin polymerization inhibitor identified by MorphoBase and ChemProteoBase profiling methods” (J Med Chem, 2015)
Calls of active or inactive are those of the source. No cut-off for these calls is given here.

What was measured:
HEK293 = assay: Antiproliferative activity against HEK293 cells assessed as inhibition of cell viability after 72 hrs by MTT assay; assay type: cell-based; conditions: Homo sapiens, HEK293, 72 h
HeLa [1] = assay: Cell cycle arrest in human HeLa cells assessed as accumulation at G2/M phase at 0.3 to 30 nM after 24 hrs by propidium iodide staining based flow cytometry; assay type: functional
PC-3 = assay: Antiproliferative activity against human PC3 cells assessed as inhibition of cell viability after 72 hrs by MTT assay; assay type: functional, cell-based; conditions: PC-3, 72 h
[2] = molecular target: Platelet-derived growth factor receptor beta (Homo sapiens) (UniProt P09619); assay: Inhibition of N-terminal GST fusion protein human PDGFR-beta cytoplasmic domain expressed in baculovirus using CSKtide as substrate at 10 uM after 1 hr by off-chip Mobility Shift Assay
Plasmodium falciparum = assay: Antimalarial activity against Plasmodium falciparum 3D7 infected in human erythrocytes assessed as LDH activity at 100 nM after 72 hrs by plate reader analysis; assay type: functional, organism-based
Candida albicans = assay: Antimicrobial activity against Candida albicans JCM1542 at 100 nM after 24 hrs by standard microdilution method; assay type: functional, organism-based
HeLa [3] = assay: Antiproliferative activity against human HeLa cells assessed as inhibition of cell viability after 72 hrs by MTT assay; assay type: functional, cell-based
Pyricularia oryzae = assay: Antimicrobial activity against Magnaporthe oryzae Kita-1 at 100 nM after 48 hrs by standard microdilution method; assay type: functional, organism-based
HCT-116 = assay: Antiproliferative activity against human HCT116 cells assessed as inhibition of cell viability after 72 hrs by MTT assay; assay type: functional, cell-based; conditions: HCT-116, 72 h
Tubulin (Homo sapiens) [4] = molecular target: T1, Tubulin (Homo sapiens) (UniProt P68371+Q9H4B7+P0DPH7+P68366+Q13509+Q71U36+P04350+Q3ZCM7+P07437+P68363+Q9BQE3+Q6PEY2+Q13885+Q9BVA1+Q9BUF5); assay: Inhibition of tubulin polymerization in human HeLa cells assessed as reduction of microtubule formation at 30 nM after 6 hrs by DAPI staining-based immunofluorescence assay; assay type: cell-based
Staphylococcus aureus = assay: Antimicrobial activity against Staphylococcus aureus 209 at 100 nM after 24 hrs by standard microdilution method; assay type: functional, organism-based
Tubulin (Homo sapiens) [5] = molecular target: T1, Tubulin (Homo sapiens); assay: Inhibition of acetylated tubulin accumulation in human HeLa cells at 1 to 100 nM after 6 hrs by Western blot analysis; assay type: cell-based
Escherichia coli = assay: Antimicrobial activity against Escherichia coli HO141 at 100 nM after 24 hrs by standard microdilution method; assay type: functional, organism-based
[6] = molecular target: T2, Cyclin-dependent kinase 2/cyclin E1 (Homo sapiens) (UniProt P24864+P24941); assay: Inhibition of N-terminal GST-tagged human full length CDK2/Cyclin E1 expressed in baculovirus using histone H1 as substrate at 10 uM after 1 hr by off-chip Mobility Shift Assay
Aspergillus fumigatus = assay: Antimicrobial activity against Aspergillus fumigatus Af293 at 100 nM after 48 hrs by standard microdilution method; assay type: functional
[7] = molecular target: Vascular endothelial growth factor receptor 2 (Homo sapiens) (UniProt P35968); assay: Inhibition of N-terminal GST fusion protein human KDR cytoplasmic domain expressed in baculovirus using CSKtide as substrate at 10 uM after 1 hr by off-chip Mobility Shift Assay
[8] = molecular target: Platelet-derived growth factor receptor beta (Homo sapiens) (UniProt P09619); assay: Inhibition of N-terminal GST fusion protein human PDGFR-beta cytoplasmic domain expressed in baculovirus using CSKtide as substrate at 0.1 uM after 1 hr by off-chip Mobility Shift Assay
Tubulin (Sus scrofa) = Tubulin (Sus scrofa) (UniProt P02554+P02550); assay: Inhibition of porcine tubulin polymerization measured every min for 1 hr by fluorescence analysis; assay type: protein assay
[9] = molecular target: T3, Serine/threonine-protein kinase Chk1 (Homo sapiens) (UniProt O14757); assay: Inhibition of human full length N-terminal GST fusion protein CHK1 expressed in baculovirus using CHKtide as substrate at 0.1 uM after 1 hr by off-chip Mobility Shift Assay
T3 sequence (whole entry): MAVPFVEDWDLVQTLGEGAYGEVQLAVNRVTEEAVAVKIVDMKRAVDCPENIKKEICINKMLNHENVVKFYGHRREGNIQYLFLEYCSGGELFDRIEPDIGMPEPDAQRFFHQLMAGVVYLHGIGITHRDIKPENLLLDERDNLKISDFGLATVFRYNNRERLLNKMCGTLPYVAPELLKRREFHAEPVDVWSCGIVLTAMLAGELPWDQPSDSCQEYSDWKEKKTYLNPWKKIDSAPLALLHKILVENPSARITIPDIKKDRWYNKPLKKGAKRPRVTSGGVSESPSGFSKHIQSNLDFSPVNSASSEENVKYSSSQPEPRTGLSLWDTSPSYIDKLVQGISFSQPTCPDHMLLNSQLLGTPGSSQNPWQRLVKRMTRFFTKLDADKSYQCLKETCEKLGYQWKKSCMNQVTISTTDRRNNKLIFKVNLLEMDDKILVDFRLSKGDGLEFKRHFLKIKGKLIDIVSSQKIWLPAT

[10] = molecular target: CDK4/Cyclin D3 (Homo sapiens) (UniProt P11802+P30281); assay: Inhibition of human full length N-terminal GST-fusion protein CDK4/GST-tagged Cyclin D3 expressed in baculovirus using DYRKtide-F as substrate at 0.1 uM after 1 hr by off-chip Mobility Shift Assay
[11] = molecular target: Epidermal growth factor receptor (Homo sapiens) (UniProt P00533); assay: Inhibition of N-terminal GST fusion protein human EGFR cytoplasmic domain expressed in baculovirus using Srctide as substrate at 0.1 uM after 1 hr by off-chip Mobility Shift Assay
[12] = molecular target: Vascular endothelial growth factor receptor 2 (Homo sapiens) (UniProt P35968); assay: Inhibition of N-terminal GST fusion protein human KDR cytoplasmic domain expressed in baculovirus using CSKtide as substrate at 0.1 uM after 1 hr by off-chip Mobility Shift Assay
[13] = molecular target: T2, Cyclin-dependent kinase 2/cyclin E1 (Homo sapiens); assay: Inhibition of N-terminal GST-tagged human full length CDK2/Cyclin E1 expressed in baculovirus using histone H1 as substrate at 0.1 uM after 1 hr by off-chip Mobility Shift Assay
HeLa [14] = assay: Cell cycle arrest in human HeLa cells assessed as accumulation at G2/M phase at 3 to 30 uM after 24 hrs by propidium iodide staining based flow cytometry; assay type: functional
HeLa [15] = assay: Cell cycle arrest in human HeLa cells assessed as accumulation at G2/M phase at 100 nM after 24 hrs by propidium iodide staining based flow cytometry; assay type: functional
Tubulin (Homo sapiens) [16] = molecular target: T1, Tubulin (Homo sapiens); assay: Inhibition of tubulin polymerization in human HeLa cells assessed as reduction of microtubule formation at 300 nM after 6 hrs by DAPI staining-based immunofluorescence assay; assay type: cell-based
Tubulin (Homo sapiens) [17] = molecular target: T1, Tubulin (Homo sapiens); assay: Inhibition of acetylated tubulin accumulation in human HeLa cells at 300 nM after 6 hrs by Western blot analysis; assay type: cell-based
Tubulin (Homo sapiens) [18] = molecular target: T1, Tubulin (Homo sapiens); assay: Inhibition of acetylated tubulin accumulation in human HeLa cells at 1000 nM after 6 hrs by Western blot analysis; assay type: cell-based
Tubulin (Homo sapiens) [19] = molecular target: T1, Tubulin (Homo sapiens); assay: Inhibition of tubulin polymerization in human HeLa cells assessed as reduction of microtubule formation at 1000 nM after 6 hrs by DAPI staining-based immunofluorescence assay; assay type: cell-based
Tubulin (Homo sapiens) [20] = molecular target: T1, Tubulin (Homo sapiens); assay: Inhibition of tubulin polymerization in human HeLa cells assessed as reduction of microtubule formation at 100 nM after 6 hrs by DAPI staining-based immunofluorescence assay; assay type: cell-based

Chain of Vascular endothelial growth factor receptor 2 (Homo sapiens) (P35968 whole entry, the tested form may be a part): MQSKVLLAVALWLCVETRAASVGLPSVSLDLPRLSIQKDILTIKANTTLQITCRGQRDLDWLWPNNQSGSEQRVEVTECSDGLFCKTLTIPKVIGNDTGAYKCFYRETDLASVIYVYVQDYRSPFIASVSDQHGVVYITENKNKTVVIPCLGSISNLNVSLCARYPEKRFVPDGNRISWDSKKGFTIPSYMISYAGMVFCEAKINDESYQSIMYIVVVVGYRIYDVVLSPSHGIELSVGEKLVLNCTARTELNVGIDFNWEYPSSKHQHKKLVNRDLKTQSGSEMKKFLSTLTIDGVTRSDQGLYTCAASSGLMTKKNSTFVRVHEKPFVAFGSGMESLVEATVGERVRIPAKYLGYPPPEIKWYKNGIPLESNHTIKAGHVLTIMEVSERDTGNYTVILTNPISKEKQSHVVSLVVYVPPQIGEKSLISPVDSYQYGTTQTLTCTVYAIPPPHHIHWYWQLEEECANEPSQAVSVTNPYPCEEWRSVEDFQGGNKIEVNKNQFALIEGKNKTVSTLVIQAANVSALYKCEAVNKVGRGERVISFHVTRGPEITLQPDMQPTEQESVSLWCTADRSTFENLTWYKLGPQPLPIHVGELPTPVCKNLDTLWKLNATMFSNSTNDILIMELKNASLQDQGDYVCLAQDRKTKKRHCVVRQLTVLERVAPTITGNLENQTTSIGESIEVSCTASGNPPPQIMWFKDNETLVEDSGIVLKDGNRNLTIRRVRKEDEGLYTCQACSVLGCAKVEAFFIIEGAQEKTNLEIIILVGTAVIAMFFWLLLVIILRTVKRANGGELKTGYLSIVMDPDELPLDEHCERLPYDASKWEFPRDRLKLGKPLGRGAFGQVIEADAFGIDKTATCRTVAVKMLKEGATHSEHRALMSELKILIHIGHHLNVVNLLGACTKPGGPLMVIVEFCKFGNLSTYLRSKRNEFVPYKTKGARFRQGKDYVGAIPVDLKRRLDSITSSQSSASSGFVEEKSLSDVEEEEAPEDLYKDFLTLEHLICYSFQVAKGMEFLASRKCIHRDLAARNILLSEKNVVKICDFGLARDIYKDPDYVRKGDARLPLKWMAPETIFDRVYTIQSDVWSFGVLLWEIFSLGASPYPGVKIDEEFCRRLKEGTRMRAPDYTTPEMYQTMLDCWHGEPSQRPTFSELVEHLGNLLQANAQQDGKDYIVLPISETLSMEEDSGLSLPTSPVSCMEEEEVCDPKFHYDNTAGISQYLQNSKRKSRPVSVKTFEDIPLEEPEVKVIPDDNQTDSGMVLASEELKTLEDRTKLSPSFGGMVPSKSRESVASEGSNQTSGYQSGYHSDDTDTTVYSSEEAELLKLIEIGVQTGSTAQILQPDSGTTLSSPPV
Chain of Platelet-derived growth factor receptor beta (Homo sapiens) (P09619 whole entry, the tested form may be a part): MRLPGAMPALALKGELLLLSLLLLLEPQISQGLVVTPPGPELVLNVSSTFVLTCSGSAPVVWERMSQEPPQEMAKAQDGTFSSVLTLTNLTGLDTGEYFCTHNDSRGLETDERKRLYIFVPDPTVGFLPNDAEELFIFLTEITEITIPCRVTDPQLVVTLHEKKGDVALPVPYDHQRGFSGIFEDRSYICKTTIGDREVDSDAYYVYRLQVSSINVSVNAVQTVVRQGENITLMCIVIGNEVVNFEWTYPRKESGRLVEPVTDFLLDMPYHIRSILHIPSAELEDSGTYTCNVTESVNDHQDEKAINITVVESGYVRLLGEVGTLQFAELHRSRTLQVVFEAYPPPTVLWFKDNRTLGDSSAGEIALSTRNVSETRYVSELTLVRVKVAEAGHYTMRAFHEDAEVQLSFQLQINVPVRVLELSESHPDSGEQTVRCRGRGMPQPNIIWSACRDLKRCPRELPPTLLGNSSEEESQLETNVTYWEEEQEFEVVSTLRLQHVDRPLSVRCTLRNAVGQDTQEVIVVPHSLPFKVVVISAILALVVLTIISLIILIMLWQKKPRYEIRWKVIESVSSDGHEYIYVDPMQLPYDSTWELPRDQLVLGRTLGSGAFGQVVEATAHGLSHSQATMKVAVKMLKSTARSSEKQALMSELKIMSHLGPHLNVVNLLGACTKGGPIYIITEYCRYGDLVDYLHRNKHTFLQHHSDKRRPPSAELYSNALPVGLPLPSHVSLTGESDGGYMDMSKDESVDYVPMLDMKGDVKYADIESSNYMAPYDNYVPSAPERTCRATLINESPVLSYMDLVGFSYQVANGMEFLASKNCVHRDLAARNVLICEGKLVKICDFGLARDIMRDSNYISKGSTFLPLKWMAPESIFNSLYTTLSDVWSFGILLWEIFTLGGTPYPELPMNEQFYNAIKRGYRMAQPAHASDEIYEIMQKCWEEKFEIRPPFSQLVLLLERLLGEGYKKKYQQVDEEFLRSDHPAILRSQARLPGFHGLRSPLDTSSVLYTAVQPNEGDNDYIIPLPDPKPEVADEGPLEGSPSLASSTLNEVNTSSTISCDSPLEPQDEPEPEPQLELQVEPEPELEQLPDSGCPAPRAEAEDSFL
Chain of Tubulin (Sus scrofa) (P02550 whole entry, looked up, the tested form may be a part): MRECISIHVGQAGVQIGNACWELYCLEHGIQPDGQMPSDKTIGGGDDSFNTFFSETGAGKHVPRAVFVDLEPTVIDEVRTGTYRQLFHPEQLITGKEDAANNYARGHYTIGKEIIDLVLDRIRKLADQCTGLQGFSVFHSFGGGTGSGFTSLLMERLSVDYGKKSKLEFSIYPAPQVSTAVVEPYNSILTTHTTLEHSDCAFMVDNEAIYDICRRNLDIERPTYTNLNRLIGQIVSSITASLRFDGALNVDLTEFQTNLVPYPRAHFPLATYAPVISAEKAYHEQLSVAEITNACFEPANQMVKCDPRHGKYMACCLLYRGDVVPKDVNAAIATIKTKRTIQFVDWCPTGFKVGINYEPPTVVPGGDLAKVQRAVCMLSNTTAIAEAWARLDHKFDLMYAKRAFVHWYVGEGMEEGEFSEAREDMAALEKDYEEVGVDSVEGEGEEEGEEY
Chain of Tubulin (Sus scrofa) (P02554 whole entry, looked up, the tested form may be a part): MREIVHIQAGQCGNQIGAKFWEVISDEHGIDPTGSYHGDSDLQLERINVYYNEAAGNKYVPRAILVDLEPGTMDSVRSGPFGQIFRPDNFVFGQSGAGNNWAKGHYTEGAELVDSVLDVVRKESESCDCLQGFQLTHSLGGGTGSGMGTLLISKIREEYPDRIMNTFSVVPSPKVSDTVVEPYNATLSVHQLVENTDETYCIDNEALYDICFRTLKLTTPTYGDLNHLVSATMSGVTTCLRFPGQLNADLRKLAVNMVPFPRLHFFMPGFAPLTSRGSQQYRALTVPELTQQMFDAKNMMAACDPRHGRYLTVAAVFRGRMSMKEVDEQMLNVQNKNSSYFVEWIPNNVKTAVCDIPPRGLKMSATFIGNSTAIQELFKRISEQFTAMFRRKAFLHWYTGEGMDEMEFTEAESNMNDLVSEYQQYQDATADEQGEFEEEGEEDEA
Chain of Epidermal growth factor receptor (Homo sapiens) (P00533 whole entry, the tested form may be a part): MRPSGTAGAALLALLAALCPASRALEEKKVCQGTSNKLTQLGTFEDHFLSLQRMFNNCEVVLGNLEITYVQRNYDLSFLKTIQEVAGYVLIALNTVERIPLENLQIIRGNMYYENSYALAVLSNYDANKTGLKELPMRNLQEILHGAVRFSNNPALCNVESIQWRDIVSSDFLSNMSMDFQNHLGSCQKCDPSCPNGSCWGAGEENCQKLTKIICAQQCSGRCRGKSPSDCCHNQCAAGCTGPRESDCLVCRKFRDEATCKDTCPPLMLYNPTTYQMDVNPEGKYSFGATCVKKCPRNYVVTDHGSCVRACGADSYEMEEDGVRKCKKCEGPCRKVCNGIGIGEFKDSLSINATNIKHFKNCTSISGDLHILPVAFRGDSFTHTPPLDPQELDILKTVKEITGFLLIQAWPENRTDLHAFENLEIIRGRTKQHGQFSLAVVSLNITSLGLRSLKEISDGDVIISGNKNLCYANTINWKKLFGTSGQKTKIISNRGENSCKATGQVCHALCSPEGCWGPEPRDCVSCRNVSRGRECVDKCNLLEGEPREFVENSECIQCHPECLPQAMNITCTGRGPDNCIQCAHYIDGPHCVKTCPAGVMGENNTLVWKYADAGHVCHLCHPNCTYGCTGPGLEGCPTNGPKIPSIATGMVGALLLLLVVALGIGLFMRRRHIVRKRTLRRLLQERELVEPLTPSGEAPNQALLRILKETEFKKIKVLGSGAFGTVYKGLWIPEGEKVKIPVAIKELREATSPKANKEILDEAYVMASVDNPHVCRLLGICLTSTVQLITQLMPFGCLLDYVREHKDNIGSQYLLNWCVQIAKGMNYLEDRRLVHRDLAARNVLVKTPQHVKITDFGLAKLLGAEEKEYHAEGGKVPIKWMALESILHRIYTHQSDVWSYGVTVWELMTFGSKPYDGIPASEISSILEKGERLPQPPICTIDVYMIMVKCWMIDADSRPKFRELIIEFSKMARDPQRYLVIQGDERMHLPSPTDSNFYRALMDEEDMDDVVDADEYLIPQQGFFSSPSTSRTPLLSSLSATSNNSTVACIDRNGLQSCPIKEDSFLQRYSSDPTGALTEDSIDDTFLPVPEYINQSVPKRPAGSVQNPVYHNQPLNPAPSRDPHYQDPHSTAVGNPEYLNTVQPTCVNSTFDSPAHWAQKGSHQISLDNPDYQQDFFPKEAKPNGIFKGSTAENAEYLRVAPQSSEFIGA

| Structure (SMILES) | IC50 (HEK293) | IC50 (PC-3) | IC50 (HeLa [3]) | IC50 (HCT-116) | further results |
| --- | --- | --- | --- | --- | --- |
| COC(=O)c1cccc(Nc2n[nH]c3c2Cc2cc(OC)ccc2-3)c1 | 2.2 nM | 2.64 nM | 2.47 nM | 2.7 nM | Activity (HeLa [1]): Active; inhibition [2]: > 82%; Activity (Plasmodium falciparum): inactive; Activity (Candida albicans): inactive; Activity (Pyricularia oryzae): inactive; inhibition (Tubulin (Homo sapiens) [4]): Active; Activity (Staphylococcus aureus): inactive; inhibition (Tubulin (Homo sapiens) [5]): Active; Activity (Escherichia coli): inactive; inhibition [6]: > 82%; Activity (Aspergillus fumigatus): inactive; inhibition [7]: > 82%; inhibition [8]: inactive; inhibition (Tubulin (Sus scrofa)): Dose-dependent effect; inhibition [9]: inactive; inhibition [10]: inactive; inhibition [11]: inactive; inhibition [12]: inactive; inhibition [13]: inactive |
| Oc1ccc2c(c1)Cc1c(Nc3ccccc3)n[nH]c1-2 | > 100 nM | > 100 nM | > 100 nM | > 100 nM | – |
| COc1ccc2c(c1)Cc1c(Nc3ccc(OC)c(OC)c3)n[nH]c1-2 | > 100 nM | 90.9 nM | > 100 nM | 86.3 nM | – |
| c1ccc(Nc2n[nH]c3c2Cc2ccccc2-3)cc1 | > 100 nM | > 100 nM | > 100 nM | > 100 nM | Activity (HeLa [1]): inactive; Activity (HeLa [14]): inactive |
| COc1cc2c(c(OC)c1OC)-c1ccc(OC)c(=O)cc1[C@@H](NC(C)=O)CC2 | – | – | – | – | Activity (HeLa [15]): Active |
| COc1ccc2c(c1)Cc1c(Nc3cccc(OCC(C)C)c3)n[nH]c1-2 | 25.5 nM | 50.5 nM | 19.9 nM | 56.6 nM | inhibition (Tubulin (Homo sapiens) [16]): Active; inhibition (Tubulin (Homo sapiens) [17]): Active |
| COc1ccc(Nc2n[nH]c3c2Cc2cc(OC)ccc2-3)cc1 | > 100 nM | > 100 nM | > 100 nM | > 100 nM | – |
| COc1ccc2c(c1)Cc1c(Nc3cccc(O)c3)n[nH]c1-2 | > 100 nM | 8.6 nM | 7.1 nM | 10.9 nM | – |
| COc1ccc2c(c1)Cc1c-2n[nH]c1Nc1ccccc1 | 53.6 nM | 35.6 nM | 8.9 nM | 26.6 nM | inhibition (Tubulin (Homo sapiens) [18]): inactive; inhibition (Tubulin (Homo sapiens) [19]): inactive |
| COc1cccc(Nc2n[nH]c3c2Cc2cc(OC)ccc2-3)c1 | 8.8 nM | 4.7 nM | 2.8 nM | 6.53 nM | – |
| CC(=O)O[C@H]1C(=O)[C@@]2(C)[C@H]([C@H](OC(=O)c3ccccc3)[C@]3(O)C[C@H](OC(=O)[C@H](O)[C@@H](NC(=O)c4ccccc4)c4ccccc4)C(C)=C1C3(C)C)[C@]1(OC(C)=O)CO[C@@H]1C[C@@H]2O | – | – | – | – | inhibition (Tubulin (Homo sapiens) [20]): inactive |
| COc1cc(Nc2n[nH]c3c2Cc2cc(OC)ccc2-3)cc(OC)c1 | 4.6 nM | 7 nM | 3.2 nM | 7.4 nM | – |
| COc1ccc2c(c1)Cc1c(Nc3ccccc3O)n[nH]c1-2 | > 100 nM | > 100 nM | > 100 nM | > 100 nM | – |
| COc1ccc2c(c1)Cc1c(Nc3cccc(C(=O)O)c3)n[nH]c1-2 | > 100 nM | > 100 nM | > 100 nM | > 100 nM | – |
| CCOc1ccc2c(c1)Cc1c(Nc3ccccc3)n[nH]c1-2 | 55.6 nM | 60.2 nM | 20.4 nM | 56.8 nM | – |
| COc1ccc2c(c1)Cc1c(Nc3ccccc3OC)n[nH]c1-2 | > 100 nM | > 100 nM | 32 nM | 86.2 nM | – |
| COc1cccc(Nc2n[nH]c3c2Cc2ccccc2-3)c1 | > 100 nM | > 100 nM | > 100 nM | > 100 nM | inhibition (Tubulin (Homo sapiens) [18]): inactive |
